Tests used:
HLA-A2 [1] = biological target: T1, HLA-A2 (Homo sapiens, UniProt P04439, D140Y/D185E/D98H/E176V/E277Q/G131W/G231S/I119V/I121R/I166T/I218V/L300P/L318F/N151K/N90K/P208A/P217A/Q86G/Q94H/R138H/R169H/T345S); experiment: Peptide binding to HLA-A2 on T2A2 cells (flow cytometry)
T1 construct: endogenous in cells; host or cells: T2A2 / 174CEM-T2 (T2) transport deletion mutant cell line
Experimental: Single-color flow cytometric analysis. The method for single-color flow cytometric analysis was described previously (F. Guadagni et al., 1990, Cancer Res. 50:6248–6255). Briefly, cells were washed three times with cold Ca^2+ and Mg^2+-free DPBS and then stained for 1 h with mAb against HLA-A2 (A2,69, One Lambda, Inc., Canoga Park, Calif.), using 10 μg of the 1× working dilution per 10^6 cells. Mineral oil plasmacytoma-104E (Cappel/Organon Teknika Corp., West Chester, Pa.) was used as an isotype control. The cells were washed three times and incubated with a 1:100 dilution of fluorescein isothiocyanate (FITC)-labeled goat anti-mouse immunoglobulin (IgG) (Kirkegaard and Perry Laboratories, Gaithersburg, Md.). The cells were immediately analyzed using a Becton Dickinson FACScan equipped with a blue laser with an excitation of […] at 488 nm. Data were gathered from 10,000 live cells, stored and used to generate results.
Peptide Binding to HLA-A2. […] Briefly, 1×10^6 cells in serum-free Iscove's modified Dulbecco's complete medium were incubated with peptides at a concentration of 50 μg/ml in 24 well culture plates at 37° C. in 5% CO2. Flow cytometry for peptide binding was performed using T2 cells and single-color analysis. After cells were washed three times in DPBS, as described above, they were incubated for 1 h with HLA-A2 specific MAb (One Lambda, Inc.) using 10 μg of a 1× working dilution per 10^6 cells. UPC-10 (Cappel/Organon Teknika) was used as isotype control. The cells were washed three times and incubated with 1:100 dilution of FITC-labeled anti-mouse IgG (Becton Dickinson). Analysis was conducted with the FACScan, as described above. Cells were maintained on ice during all cell preparation and staining.
The four analogs were then tested for binding to the HLA-A2 positive T2A2 cells as described in the Examples section. The NCA peptide was previously shown to not bind to HLA-A2, and was used as a negative […] control. Peptides were added to T2A2 cells at concentrations of 0 to 50 μg/ml.

HLA-A2 [2] = biological target: T1, HLA-A2; experiment: Stability of peptide-HLA-A2 complex on T2A2 cells (brefeldin A); format: binding; conditions: 50 μg/ml overnight, 8-h observation period, FIG. 2
Experimental: FIG. 2. Comparison of the stability of the complex of the PSA-3 or PSA-3A peptide with HLA-A2. T2A2 cells were incubated with PSA-3 (open squares) or PSA-3A (closed squares) peptide at a concentration of 50 μg/ml overnight and then washed free of unbound peptide and incubated with brefeldin A to block delivery of new class I molecules to cell surface. At indicated times, cells were stained for the presence of surface peptide-HLA-A2 complexes. Results are expressed in relative % binding as compared to 100% binding at time zero.
Studies were then undertaken to examine the stability of the peptideMHC complex for peptides PSA-3 and PSA-3A. Peptides were incubated with T2A2 cells overnight, washed free of unbound peptide and incubated with brefeldin-A to block delivery of new class I molecules to the cell surface. At various time points, cells were analyzed for the presence of peptide-HLA-A2 complexes. […] Thus, both the ability of the peptide to bind MHC (FIGS. 1A–1B) and the stability (FIG. 2), i.e., avidity of the peptide-MHC complex, are greater for the PSA-3A peptide than the native PSA-3 peptide.

[3] = test system: HLA-A2/K^b transgenic mice; experiment: Immunization of HLA-A2.1/Kb transgenic mice with peptide-pulsed DCs, IFN-γ production by T cells; format: in vivo, mouse; conditions: 24 h
Excerpt: Transgenic Mice. HLA-A2.1/K^b transgenic mice were kindly provided by Dr. L. Sherman (Scripps Laboratories, San Diego, Calif.). Transgenic mice express the product of the HLA-A2.1/Kb chimeric gene in which the alpha-3 domain of the heavy chain is replaced by mouse H-2/K^b domain, but the HLA-A2.1 alpha-1 and alpha-2 domains are unaltered (A. Vitiello et al., 1991, J. Exp. Med. 173:1007–1015; V. H. Engelhard et al., 1991, J. Immunol. 46:1226–1232).
In Vivo Immunization and Murine T cell Cultures. Three groups of HLA-A2.1/K^b transgenic mice (three mice per group) were immunized s.c. (subcutaneously) in the base of the tail with PSA-3 peptide-pulsed HLA-A2.1/K^b DC, PSA-3A peptide-pulsed DCs from HLA-A2.1/K^b transgenic mice, or DCs only. Peptides were used at a concentration of 50 μg/ml and DCs were used at 1×10^6 cell/mouse/injection. A total of three injections were given to each animal, 2 weeks apart. Mice injected with DCs only were used as controls. Mice were sacrificed 7 days after the last injection, and spleen cells were restimulated in vitro with 25 μg/ml of PSA-3 or PSA3A peptide with irradiated syngeneic spleen cell for 6 days. The cytokine production of these bulk cultures was tested. Peptide-pulsed Jurkat A2 (JA2 K^b) cells were used as stimulator cells. Jurkat 0201 K^b cells are stable transfectants of the human T cell leukemia line, Jurkat, which express the product of HLA-A0201K^b climeric gene (L. A. Sherman et al., 1992, Science 258:815–818).
The HLA-A2/K^b transgenic mouse has been previously reported to aid in the determination of the immunogenicity of HLA-A2 peptides for humans. This in vivo system was thus employed to further analyze and compare the immunogenicity of the PSA-3A peptide with that of the native PSA-3 peptide. DCs from the HLA-A2/K^b transgenic mice were pulsed with either the PSA-3 or the PSA-3A peptide and used to vaccinate HLA-A2b mice. DCs alone (no peptide) were also used as a control vaccine. After three vaccinations at 2-week intervals, T cells were isolated from splenocytes obtained 2 weeks after the last vaccination. The T cells were then incubated with Jurkat A2/K^b cells pulsed with the PSA-3 peptide, the PSA-3A peptide, or no peptide, and production of INF-γ was measured from supernatants after 24 h.

V8T cells = format: cell-based, human

## VLSNDVCAQV (SEQ ID NO:3) [PSA-3A]
HLA-A2 [1]; FIG. 1B
  Binding to HLA-A2 at lower peptide concentrations: clearly bound higher levels of HLA-A2 than PSA-3
HLA-A2 [1]; peptide 0 to 50 μg/ml, FIG. 1A
  Binding to HLA-A2 (relative fluorescence, MFI): higher levels than PSA-3
HLA-A2 [2]
  Stability of peptide-HLA-A2 complexes: more stable than PSA-3 complexes
[3]; label = peptide pulsed on immunizing DCs, Jurkat A2/K^b cells pulsed with PSA-3A (25 μg/ml)
  Production of IFN-γ: 6,218.9 pg/ml/10^6 cells
[3]; label = peptide pulsed on immunizing DCs, Jurkat A2/K^b cells with no peptide
  Production of IFN-γ: <37.0 pg/ml/10^6 cells
[3]; label = peptide pulsed on immunizing DCs, T cells restimulated with Jurkat A2/K^b cells pulsed with PSA-3 (25 μg/ml)
  Production of IFN-γ: 5,094.3 pg/ml/10^6 cells
[3]; mice immunized with DCs (no peptide), label = peptide pulsed on Jurkat A2/K^b cells
  Production of IFN-γ: <37.0 pg/ml/10^6 cells
V8T cells
  Production of IFN-γ by V8T: <13.0 pg/mL

From patent US7247615B2, “Peptide agonists of prostate-specific antigen and uses therefor” (priority 2001, dated 2007)
